One test concerns the target T1, EGFR del746-750 T790M (Homo sapiens, UniProt P00533, DEL746-750/T790M).
T1 construct: purchased Carna Biosciences 08-528
Nature of the test: EGFR del746-750 T790M biochemical assay (Caliper mobility shift). Conditions: 5 μM ATP; apparent Ki (Morrison fit) converted by Cheng-Prusoff, Km of ATP 2.1 μM; read-out: EGFR(T790M/d746-750) Ki. The method in brief: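 Kinase reactions ran 30 min at room temperature (22 °C), then were stopped with 80 mM EDTA. Phosphorylated product and substrate were separated electrophoretically and quantified by Caliper mobility shift.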

Test [1] deals with T2, phosphor-EGFR in H1975(L585R/T790M) mutant EGFR expressing cells (Homo sapiens, UniProt P00533, L858R/T790M).
T2 construct: host or cells: NCI-H1975
T2 sequence (P00533 25-1210 T790M/L858R): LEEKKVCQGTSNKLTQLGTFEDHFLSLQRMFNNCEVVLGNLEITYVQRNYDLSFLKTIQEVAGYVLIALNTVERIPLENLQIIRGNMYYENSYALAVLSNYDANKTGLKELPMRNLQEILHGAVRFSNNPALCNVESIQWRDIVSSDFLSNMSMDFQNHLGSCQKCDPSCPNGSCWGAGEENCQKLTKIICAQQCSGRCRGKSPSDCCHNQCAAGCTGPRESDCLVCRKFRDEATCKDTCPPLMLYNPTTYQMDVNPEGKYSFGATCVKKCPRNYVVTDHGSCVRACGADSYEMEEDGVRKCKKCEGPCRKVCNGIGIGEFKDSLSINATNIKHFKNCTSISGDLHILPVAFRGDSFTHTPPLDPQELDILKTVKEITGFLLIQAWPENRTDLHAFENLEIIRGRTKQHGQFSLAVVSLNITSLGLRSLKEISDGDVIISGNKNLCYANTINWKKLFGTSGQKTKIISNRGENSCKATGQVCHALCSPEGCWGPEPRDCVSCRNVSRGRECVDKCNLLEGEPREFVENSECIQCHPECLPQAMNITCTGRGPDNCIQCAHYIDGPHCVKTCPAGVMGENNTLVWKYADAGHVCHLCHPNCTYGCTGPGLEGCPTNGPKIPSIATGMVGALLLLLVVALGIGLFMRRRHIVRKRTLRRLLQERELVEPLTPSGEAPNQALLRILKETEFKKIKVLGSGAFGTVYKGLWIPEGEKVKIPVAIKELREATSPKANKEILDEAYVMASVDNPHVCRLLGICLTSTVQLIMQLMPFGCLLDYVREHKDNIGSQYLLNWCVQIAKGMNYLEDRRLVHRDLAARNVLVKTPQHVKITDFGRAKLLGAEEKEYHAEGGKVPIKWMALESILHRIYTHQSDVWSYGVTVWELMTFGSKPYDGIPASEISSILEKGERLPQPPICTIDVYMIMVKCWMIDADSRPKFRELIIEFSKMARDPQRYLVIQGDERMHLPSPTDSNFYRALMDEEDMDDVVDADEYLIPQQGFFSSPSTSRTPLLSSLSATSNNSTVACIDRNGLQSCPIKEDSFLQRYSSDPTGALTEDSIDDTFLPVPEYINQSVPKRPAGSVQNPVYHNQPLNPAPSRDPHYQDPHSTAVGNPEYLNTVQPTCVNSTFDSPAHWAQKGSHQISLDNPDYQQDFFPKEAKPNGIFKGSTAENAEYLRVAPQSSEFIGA
Nature of the test: H1975 pEGFR MSD cellular assay. It is filed as cell-based. As to conditions: NCI-H1975 cells, serum starved, 1 hour compound incubation, pEGFR Tyr1068 MSD; read-out: HI975 pEGFR EC50. The method in brief: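 NCI-H1975 cells, 30,000/well, serum-starved overnight, then treated 1 hour at 37° C with serially diluted compounds in serum-free medium (0.5% DMSO). Lysates captured on anti-phospho-EGFR plates overnight at 4° C, detected with SULFO-TAG anti-total EGFR by electrochemiluminescence. Inhibition vs untreated controls; EC50 from 4-parameter logistic fit.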

Test [2] deals with H1975 (EGFR T790M/L858R) cell proliferation. Nature of the test: H1975 proliferation assay (Cell Titer-Glo). Type of test: cell-based. Conditions: Homo sapiens, NCI-H1975, 72 h, NCI-H1975 cells, 72 hour incubation, read-out: H1975 antiproliferative EC50. The procedure:
H1975 Proliferation Assays
All cell culture reagents were purchased from Invitrogen/Gibco. Cells are cultured at 37° C. at 5% CO2 and split as recommended by ATCC.

The target in the next test is T3, EGFR T790M L858R (Homo sapiens, UniProt P00533, L858R/T790M).
T3 construct: purchased Life Technologies PV4879
T3 sequence (P00533 25-1210 T790M/L858R): as above
Nature of the test: EGFR T790M L858R biochemical assay (Caliper mobility shift). Conditions: 5 μM ATP; apparent Ki (Morrison fit) converted by Cheng-Prusoff, Km of ATP 1.3 μM. The essentials:
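Reactions run 30 minutes at room temperature (22 °C), stopped with 80 mM EDTA. Phosphorylated product and substrate separated electrophoretically and quantified by Caliper mobility shift.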

Molecules are shown by their SMILES. pEC50, pKi: −log10 of the molar value.

T1 sequence (P00533 with tags, fused parts or gaps DEL746-750/T790M limits assumed): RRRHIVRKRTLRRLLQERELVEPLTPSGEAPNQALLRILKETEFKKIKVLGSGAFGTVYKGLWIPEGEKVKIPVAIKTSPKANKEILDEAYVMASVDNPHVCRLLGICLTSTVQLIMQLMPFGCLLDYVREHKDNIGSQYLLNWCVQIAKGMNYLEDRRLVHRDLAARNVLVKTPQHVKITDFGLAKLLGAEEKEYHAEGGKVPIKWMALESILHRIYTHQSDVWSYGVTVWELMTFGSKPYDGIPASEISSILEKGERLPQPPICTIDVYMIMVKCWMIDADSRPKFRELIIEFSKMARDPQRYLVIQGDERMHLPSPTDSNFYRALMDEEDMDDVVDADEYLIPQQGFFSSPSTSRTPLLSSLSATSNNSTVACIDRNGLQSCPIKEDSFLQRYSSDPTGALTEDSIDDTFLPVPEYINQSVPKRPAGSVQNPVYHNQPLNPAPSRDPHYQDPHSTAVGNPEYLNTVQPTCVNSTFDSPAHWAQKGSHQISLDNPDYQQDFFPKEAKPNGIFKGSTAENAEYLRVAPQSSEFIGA

Turning to `CC[C@H](C)n1nc(N2CC3(COC3)C2)c2cnc(Nc3ccnc(OCC(C)(C)S(C)(=O)=O)n3)cc21` [Example 71, [1-((S)-sec-Butyl)-3-(2-oxa-6-azaspiro[3.3]hept-6-yl)-1H-pyrazolo[4,3-c]pyridin-6-yl]-[2-(2-methanesulfonyl-2-methylpropoxy)pyrimidin-4-yl]amine], the pKi on EGFR del746-750 T790M was 7.88; on EGFR T790M L858R it was 8.33. Moreover, the values for the pEC50 in test [1] and in test [2] were 6.59 and 6.10, respectively.

In the case of `CC(C)n1nc(N2CCOC2=O)c2cnc(Nc3ccnc(-c4cnn(S(=O)(=O)C5CC5)c4)n3)cc21` [Example 72, 3-(6-(2-(1-(Cyclopropylsulfonyl)-1H-pyrazol-4-yl)pyrimidin-4-ylamino)-1-isopropyl-1H-pyrazolo[4,3-c]pyridin-3-yl)oxazolidin-2-one], the pKi on EGFR del746-750 T790M is 9.30; at EGFR T790M L858R it was 9.15. Also, the pEC50 was 7.55 in test [1] and 6.69 in test [2].

For `CC(C)n1nc(N2CC3CCC(C2)O3)c2cnc(Nc3ccnc(-c4cnn(S(=O)(=O)C5CC5)c4)n3)cc21` [Example 73, 3-(8-Oxa-3-azabicyclo[3.2.1]octan-3-yl)-N-(2-(1-(cyclopropylsulfonyl)-1H-pyrazol-4-yl)pyrimidin-4-yl)-1-isopropyl-1H-pyrazolo[4,3-c]pyridin-6-amine], the results for the pKi on EGFR del746-750 T790M and at EGFR T790M L858R were 8.51 and 8.48, respectively. In addition, the pEC50 in test [1] was 6.90; in test [2], 5.92.

For the molecule `CC(C)n1nc(NC(C)(C)C)c2cnc(Nc3ccnc(-c4cnn(S(=O)(=O)C5CC5)c4)n3)cc21` [Example 74, N^3-tert-Butyl-N^6-(2-(1-(cyclopropylsulfonyl)-1H-pyrazol-4-yl)pyrimidin-4-yl)-1-isopropyl-1H-pyrazolo[4,3-c]pyridine-3,6-diamine], the pKi at EGFR del746-750 T790M was 6.98; on EGFR T790M L858R, 6.89. Besides, the negative-log EC50 (pEC50) in test [1] was 5.03; in test [2], 5.34.

Take `CC(C)n1nc(N2CCN(C)C2=O)c2cnc(Nc3ccnc(N4CCC(O)C(F)C4)n3)cc21` (stereo not drawn) [Example 76, 1-(6-(2-(cis-3-Fluoro-4-hydroxypiperidin-1-yl)pyrimidin-4-ylamino)-1-isopropyl-1H-pyrazolo[4,3-c]pyridin-3-yl)-3-methylimidazolidin-2-one]: the pKi at EGFR del746-750 T790M was 7.86; on EGFR T790M L858R, 8.29. The negative-log EC50 (pEC50) is 6.12 in test [1] and 5.93 in test [2].

Turning to `CC(C)n1nc(N2CC(C)(O)C2)c2cnc(Nc3ccnc(-c4cnn(S(=O)(=O)C5CC5)c4)n3)cc21` [Example 82, 1-(6-(2-(1-(Cyclopropylsulfonyl)-1H-pyrazol-4-yl)pyrimidin-4-ylamino)-1-isopropyl-1H-pyrazolo[4,3-c]pyridin-3-yl)-3-methylazetidin-3-ol], the pKi is 8.92 on EGFR del746-750 T790M and 8.85 at EGFR T790M L858R. Besides, the negative logarithm of the EC50 (pEC50) is 6.97 in test [1] and 6.54 in test [2].

Take `CC(C)n1nc(N2CCN(C)C2=O)c2cnc(Nc3ccnc(-c4cnn(S(=O)(=O)C5CC5)c4)n3)cc21` [Example 83, 1-(6-(2-(1-(Cyclopropylsulfonyl)-1H-pyrazol-4-yl)pyrimidin-4-ylamino)-1-isopropyl-1H-pyrazolo[4,3-c]pyridin-3-yl)-3-methylimidazolidin-2-one]: the pKi at EGFR del746-750 T790M was 8.92; at EGFR T790M L858R, 8.89. For the same molecule, the negative-log EC50 (pEC50) was 7.67 in test [1] and less than 5.00 in test [2].

With `CC(C)n1nc(N2CC(C(C)(C)C(N)=O)C2)c2cnc(Nc3ccnc(N4CCC(C)(O)CC4)n3)cc21` [Example 84, 2-(1-(6-(2-(4-Hydroxy-4-methylpiperidin-1-yl)pyrimidin-4-ylamino)-1-isopropyl-1H-pyrazolo[4,3-c]pyridin-3-yl)azetidin-3-yl)-2-methylpropanamide], the pKi on EGFR del746-750 T790M was 7.69; at EGFR T790M L858R it was 8.17. Besides, the pEC50 in test [1] is 5.67; in test [2] it was less than 5.00.

The record behind these values is patent US9951064B2, “Azaindazole compounds as inhibitors of T790M containing EGFR mutants” (Genentech, Inc., priority 2013, dated 2018).
